Data as given in PubChem BioAssay AID220 (DTP/NCI, 2004).
Where “and” joins values, the source holds several entries; their conditions need not be identical. Equal values may be shown once. Results filed as inconclusive are left out.

System: CD8F1 mice, subcutaneous mammary adenocarcinoma, T/C%
Test: NCI In Vivo Anticancer Drug Screen. Data for tumor model Mammary Adenocarcinoma CD8F1 (subcutaneous) in CD8F1
Conditions: higher = larger tumour
Description: The antitumor activity of compounds was measured in mice bearing transplantable tumors. Survival or tumor size were measured and the results are expressed as the measurement made in the treated group (T) divided by the measurement made in the vehicle treated control group (C). The tumor model used in this assay is Mammary Adenocarcinoma CD8F1 (subcutaneous) in CD8F1

[1] = endpoint: median tumor weight (est.), dose: 12.5 mg/kg/injection, schedule: Q07DX005 (ip), vehicle: Klucel (hydroxypropylcellulose) (HPC)
[2] = endpoint: median tumor weight (est.), dose: 25.0 mg/kg/injection, schedule: Q07DX005 (ip), vehicle: Klucel (hydroxypropylcellulose) (HPC)
[3] = endpoint: median tumor weight (est.), dose: 50.0 mg/kg/injection, schedule: Q07DX005 (ip), vehicle: Klucel (hydroxypropylcellulose) (HPC)
[4] = endpoint: median tumor weight (est.), dose: 100.0 mg/kg/injection, schedule: Q07DX005 (ip), vehicle: Klucel (hydroxypropylcellulose) (HPC)
[5] = endpoint: median tumor weight (est.), dose: 25.0 mg/kg/injection, schedule: Q07DX005 (ip), vehicle: saline with Tween-80
[6] = endpoint: median tumor weight (est.), dose: 50.0 mg/kg/injection, schedule: Q07DX005 (ip), vehicle: saline with Tween-80
[7] = endpoint: median tumor weight (est.), dose: 200.0 mg/kg/injection, schedule: Q07DX005 (ip), vehicle: saline with Tween-80
[8] = endpoint: median tumor weight change, dose: 125.0 mg/kg/injection, schedule: Q01DX001 (ip), vehicle: saline with Tween-80

CC(C)CCC(=O)c1ccoc1
T/C (endpoint: median tumor weight change, dose: 0.31 mg/kg/injection, schedule: Q03HX003 (ip), vehicle: saline with Tween-80): 90 % of control | T/C (endpoint: median tumor weight change, dose: 0.62 mg/kg/injection, schedule: Q03HX003 (ip), vehicle: saline with Tween-80): 102 % of control | T/C (endpoint: median tumor weight change, dose: 1.25 mg/kg/injection, schedule: Q03HX003 (ip), vehicle: saline with Tween-80): 103 % of control

CN(C1=NS(=O)(=O)N=C(N(C)c2ccccc2)O1)c1ccccc1
T/C [1]: 86 % of control | T/C [2]: 88 % of control | T/C [3]: 90 % of control | T/C [4]: 123 % of control and 115 % of control | T/C (endpoint: median tumor weight (est.), dose: 200.0 mg/kg/injection, schedule: Q07DX005 (ip), vehicle: Klucel (hydroxypropylcellulose) (HPC)): 86 % of control and 111 % of control | T/C (endpoint: median tumor weight (est.), dose: 800.0 mg/kg/injection, schedule: Q07DX005 (ip), vehicle: Klucel (hydroxypropylcellulose) (HPC)): 85 % of control | T/C (endpoint: median tumor weight change, dose: 50.0 mg/kg/injection, schedule: Q01DX001 (ip), vehicle: Klucel (hydroxypropylcellulose) (HPC)): 76 % of control | T/C (endpoint: median tumor weight change, dose: 100.0 mg/kg/injection, schedule: Q01DX001 (ip), vehicle: Klucel (hydroxypropylcellulose) (HPC)): 71 % of control and 75 % of control and 91 % of control | T/C (endpoint: median tumor weight change, dose: 800.0 mg/kg/injection, schedule: Q01DX001 (ip), vehicle: Klucel (hydroxypropylcellulose) (HPC)): 47 % of control and 64 % of control and 69 % of control | T/C (endpoint: median tumor weight change, dose: 1600.0 mg/kg/injection, schedule: Q01DX001 (ip), vehicle: Klucel (hydroxypropylcellulose) (HPC)): 70 % of control

CN(C(=S)S(=O)(=O)C12CC3CC(CC(C3)C1)C2)c1ccccc1
T/C (endpoint: median tumor weight (est.), dose: 6.25 mg/kg/injection, schedule: Q07DX005 (ip), vehicle: Klucel (hydroxypropylcellulose) (HPC)): 66 % of control | T/C [1]: 84 % of control | T/C [2]: 81 % of control | T/C [3]: 77 % of control | T/C [4]: 61 % of control

CC(=O)Oc1ccccc1O
T/C (endpoint: median tumor weight change, dose: 62.5 mg/kg/injection, schedule: Q01DX001 (ip), vehicle: saline + Tween-80 + alcohol): 50 % of control | T/C (endpoint: median tumor weight change, dose: 125.0 mg/kg/injection, schedule: Q01DX001 (ip), vehicle: saline + Tween-80 + alcohol): 57 % of control | T/C (endpoint: median tumor weight change, dose: 250.0 mg/kg/injection, schedule: Q01DX001 (ip), vehicle: saline + Tween-80 + alcohol): 58 % of control

O=C[C@@H](CO)O[C@H](C=O)n1cnc2c(=O)[nH]cnc21
T/C (endpoint: mean tumor weight, dose: 12.5 mg/kg/injection, schedule: Q07DX004 (ip), vehicle: saline with Tween-80): 119 % of control | T/C (endpoint: mean tumor weight, dose: 25.0 mg/kg/injection, schedule: Q07DX004 (ip), vehicle: saline with Tween-80): 98 % of control | T/C (endpoint: mean tumor weight, dose: 50.0 mg/kg/injection, schedule: Q07DX004 (ip), vehicle: saline with Tween-80): 76 % of control | T/C (endpoint: mean tumor weight, dose: 100.0 mg/kg/injection, schedule: Q07DX004 (ip), vehicle: saline with Tween-80): 78 % of control | T/C (endpoint: mean tumor weight, dose: 200.0 mg/kg/injection, schedule: Q07DX004 (ip), vehicle: saline with Tween-80): 100 % of control | T/C (endpoint: mean tumor weight, dose: 400.0 mg/kg/injection, schedule: Q07DX004 (ip), vehicle: saline with Tween-80): 67 % of control | T/C (endpoint: median tumor weight (est.), dose: 12.5 mg/kg/injection, schedule: Q07DX005 (ip), vehicle: saline with Tween-80): 95 % of control | T/C [5]: 116 % of control | T/C [6]: 118 % of control | T/C (endpoint: median tumor weight (est.), dose: 100.0 mg/kg/injection, schedule: Q07DX005 (ip), vehicle: saline with Tween-80): 113 % of control | T/C [7]: 84 % of control | T/C (endpoint: median tumor weight (est.), dose: 400.0 mg/kg/injection, schedule: Q07DX005 (ip), vehicle: saline with Tween-80): 82 % of control

CCCCCCCCCCCCCCCCS(=O)CC(O)COC(=O)c1ccc(C(=O)OCC(O)CS(=O)CCCCCCCCCCCCCCCC)cc1 (configuration not stated)
T/C (endpoint: median tumor weight (est.), dose: 12.5 mg/kg/injection, schedule: Q07DX005 (ip), vehicle: saline + Tween-80 + alcohol): 68 % of control and 88 % of control | T/C (endpoint: median tumor weight (est.), dose: 25.0 mg/kg/injection, schedule: Q07DX005 (ip), vehicle: saline + Tween-80 + alcohol): 69 % of control and 79 % of control | T/C (endpoint: median tumor weight (est.), dose: 200.0 mg/kg/injection, schedule: Q07DX005 (ip), vehicle: saline + Tween-80 + alcohol): 48 % of control and 64 % of control | T/C (endpoint: median tumor weight (est.), dose: 400.0 mg/kg/injection, schedule: Q07DX005 (ip), vehicle: saline + Tween-80 + alcohol): 78 % of control and 84 % of control

c1ccc([P+](c2ccccc2)(c2ccccc2)c2ccccc2)cc1
T/C (endpoint: median tumor weight (est.), dose: 0.31 mg/kg/injection, schedule: Q07DX004 (ip), vehicle: saline): 218 % of control and 86 % of control | T/C (endpoint: median tumor weight (est.), dose: 0.31 mg/kg/injection, schedule: Q07DX005 (ip), vehicle: saline): 98 % of control | T/C (endpoint: median tumor weight (est.), dose: 0.62 mg/kg/injection, schedule: Q04DX005 (ip), vehicle: saline): 50 % of control and 67 % of control | T/C (endpoint: median tumor weight (est.), dose: 0.62 mg/kg/injection, schedule: Q07DX005 (ip), vehicle: saline): 121 % of control | T/C (endpoint: median tumor weight (est.), dose: 1.25 mg/kg/injection, schedule: Q04DX005 (ip), vehicle: saline): 100 % of control | T/C (endpoint: median tumor weight (est.), dose: 1.25 mg/kg/injection, schedule: Q07DX004 (ip), vehicle: saline): 124 % of control | T/C (endpoint: median tumor weight (est.), dose: 1.25 mg/kg/injection, schedule: Q07DX005 (ip), vehicle: saline): 62 % of control | T/C (endpoint: median tumor weight (est.), dose: 2.5 mg/kg/injection, schedule: Q04DX005 (ip), vehicle: saline): 73 % of control and 76 % of control | T/C (endpoint: median tumor weight (est.), dose: 2.5 mg/kg/injection, schedule: Q07DX005 (ip), vehicle: saline): 63 % of control

O=C(Nc1nncs1)c1ccncc1
T/C [5]: 151 % of control | T/C (endpoint: median tumor weight (est.), dose: 800.0 mg/kg/injection, schedule: Q07DX005 (ip), vehicle: saline with Tween-80): 69 % of control

NC1(C(=O)O)CCCC1
T/C (endpoint: mean tumor weight, dose: 5.0 mg/kg/injection, schedule: Q01DX009 (ip), vehicle: saline): 89 % of control | T/C (endpoint: mean tumor weight, dose: 10.0 mg/kg/injection, schedule: Q01DX009 (ip), vehicle: saline): 30 % of control | T/C (endpoint: mean tumor weight, dose: 12.5 mg/kg/injection, schedule: Q07DX005 (ip), vehicle: saline): 40 % of control | T/C (endpoint: mean tumor weight, dose: 12.5 mg/kg/injection, schedule: Q07DX007 (ip), vehicle: saline): 104 % of control | T/C (endpoint: mean tumor weight, dose: 20.0 mg/kg/injection, schedule: Q01DX009 (ip), vehicle: saline): 5 % of control | T/C (endpoint: mean tumor weight, dose: 25.0 mg/kg/injection, schedule: Q07DX004 (ip), vehicle: saline): 81 % of control | T/C (endpoint: mean tumor weight, dose: 25.0 mg/kg/injection, schedule: Q07DX005 (ip), vehicle: saline): 122 % of control | T/C (endpoint: mean tumor weight, dose: 25.0 mg/kg/injection, schedule: Q07DX007 (ip), vehicle: saline): 123 % of control | T/C (endpoint: mean tumor weight, dose: 25.0 mg/kg/injection, schedule: Q07DX008 (ip), vehicle: saline): 119 % of control | T/C (endpoint: mean tumor weight, dose: 50.0 mg/kg/injection, schedule: Q07DX004 (ip), vehicle: saline): 6 % of control | T/C (endpoint: mean tumor weight, dose: 50.0 mg/kg/injection, schedule: Q07DX005 (ip), vehicle: saline): 9 % of control | T/C (endpoint: mean tumor weight, dose: 50.0 mg/kg/injection, schedule: Q07DX007 (ip), vehicle: saline): 5 % of control | T/C (endpoint: mean tumor weight, dose: 50.0 mg/kg/injection, schedule: Q07DX008 (ip), vehicle: saline): 43 % of control | T/C (endpoint: median tumor weight (est.), dose: 25.0 mg/kg/injection, schedule: Q07DX005 (ip), vehicle: saline): 39 % of control | T/C (endpoint: median tumor weight (est.), dose: 50.0 mg/kg/injection, schedule: Q07DX005 (ip), vehicle: saline): 28 % of control

CC[C@H](CC[C@@H](C)C1CC[C@H]2[C@@H]3CC=C4C[C@@H](OP(=O)(N5CC5)N5CC5)CC[C@]4(C)[C@H]3CC[C@]12C)C(C)C (some centres not stated)
T/C [5]: 77 % of control | T/C [6]: 56 % of control and 75 % of control | T/C [7]: 72 % of control and 75 % of control | T/C [8]: 82 % of control | T/C (endpoint: median tumor weight change, dose: 1000.0 mg/kg/injection, schedule: Q01DX001 (ip), vehicle: saline with Tween-80): 41 % of control and 44 % of control | T/C (endpoint: median tumor weight change, dose: 2000.0 mg/kg/injection, schedule: Q01DX001 (ip), vehicle: saline with Tween-80): 9 % of control and 14 % of control

CCC1=C2C(=O)c3ccccc3C2=C(C)S(=O)(=O)O1
T/C (endpoint: median tumor weight change, dose: 31.25 mg/kg/injection, schedule: Q01DX001 (ip), vehicle: saline with Tween-80): 120 % of control | T/C (endpoint: median tumor weight change, dose: 62.5 mg/kg/injection, schedule: Q01DX001 (ip), vehicle: saline with Tween-80): 185 % of control | T/C [8]: 116 % of control

C1CNCOC1
T/C (endpoint: median tumor weight change, dose: 50.0 mg/kg/injection, schedule: Q01DX001 (ip), vehicle: saline): 74 % of control | T/C (endpoint: median tumor weight change, dose: 62.5 mg/kg/injection, schedule: Q01DX001 (ip), vehicle: saline): 48 % of control | T/C (endpoint: median tumor weight change, dose: 100.0 mg/kg/injection, schedule: Q01DX001 (ip), vehicle: saline): 82 % of control | T/C (endpoint: median tumor weight change, dose: 200.0 mg/kg/injection, schedule: Q01DX001 (ip), vehicle: saline): 90 % of control | T/C (endpoint: median tumor weight change, dose: 250.0 mg/kg/injection, schedule: Q01DX001 (ip), vehicle: saline): 96 % of control
